Test results taken from patent EP2601945A1 (Thomale, Jürgen, priority 2011, dated 2013).

Tested on: Pt-GG adducts in DNA
Experiment: In vivo screening for cis-platin uptake inhibitors and DPH co-administration, ICA of Pt-GG adducts
Parameters: species or system mice
Conditions: 24 h; for inhibition of DNA platination in the three target cell types: independent of dosing (quinine 100 or 50 mg/kg, butylscopolamine 20 or 10 mg/kg) i.p. 1 h before cis-platin 10 mg/kg
Protocol: The sacrificed animals were immediately dissected. Kidneys and lungs were submerged in embedding medium (Tissue-Tek O.C.T. Compound) and frozen in liquid nitrogen. Cochleae were dissected and fixed by intralabyrinthine perfusion with Carnoy's solution (3 hours; for DNA adduct staining) or with formaldehyde (4 % in PBS; 1 hour; for OCT protein staining). Cochleae were decalcified in EDTA solution (10 % w/v in PBS) for 3 days and then placed in sucrose solutions (5 % in PBS for 12 hours and 15 % in PBS for 5 hours). After that samples were imbedded in Tissue-Tek medium, frozen and cryosections of 10 µm cut.
Frozen tissue sections of the inner ear or kidneys on ImmunoSelect slides were fixed in methanol at -20°C for at least 2 hours or overnight and then rehydrated for 10 minutes in PBS, at room temperature. To provide better antibody penetration in the tissue structures the samples underwent alkaline permeabilisation of cytoplasmic and nuclear membranes for 5 minutes at 0°C, followed by washing in PBS at room temperature for 5 minutes. The proteolytic cleavage of cytoplasmic and nuclear proteins was performed in two steps. At first, a pre-warmed pepsin solution (60 µg /ml for cell culture or 100 µg/ml for tissue sections in PBS/HCl) was applied onto the tissue sections and incubated for 10 minutes at 37°C in a humidified chamber. The incubation with pepsin was followed by washing in PBS for 10 minutes at room temperature. In a second step tissue sections were incubated with pre-warmed proteinase K solution (40 µg/ml for cell cultures or 50-100 µg /ml for tissue sections in proteinase K buffer) for 10 minutes at 37°C in a humidified chamber. Subsequently the sections were washed in 0.2 % glycine in PBS for 10 minutes at room temperature. Non-specific binding of the antibodies was inhibited by incubation with a blocking solution of 1 % casein in PBS for 30 minutes at room temperature. The samples were then incubated with a monoclonal antibody (R-C18, Liedert et al., 2006) specific for Pt-GG adducts in DNA (0.1 µg/ml in 0.1 % BSA/PBS) over night at 4°C in the humidified chamber. Subsequently, the slides were washed in 0.05 % Tween 20 in PBS for 5 minutes at room temperature and then in PBS for 5 minutes. The incubation with secondary Cy3-labeled rabbit anti-(rat Ig) antibodies, was performed (0.2 µg/ml in 0.1 % BSA/PBS) for 60 minutes at 37°C in the humidified chamber, followed by washing in 0.05 % Tween 20 in PBS for 5 minutes at room temperature and then in PBS for 5 minutes. The nuclear DNA was counterstained with DAPI (1 µg/ml in PBS) for 30 minutes at room temperature. The slides were then washed in PBS. Finally, the samples were embedded with a densification compound "[…]". The quantification of immuno- and DNA-fluorescence was performed by means of a microscope-coupled digital image analysis system ACAS 6.0 Cytometry Analysis System. Adduct levels in the nuclear DNA of individual cells were calculated by normalizing antibody-derived fluorescence signals to the corresponding DNA content of the same nucleus, and were expressed as arbitrary fluorescence units (AFUs). Data were assigned to specific cell types as determined by histochemistry.
The mice were separated into two groups for pretreatment with low or high doses of the test compounds. […] The low dose group received half the dose of the high dose group (50, 50, 30 or 10 mg/kg, respectively). […] Cochleae and kidneys were dissected for immunostaining and ICA analyses of Pt-GG adduct levels in specific cell types (Figure 8). In tissue sections from mice pretreated with quinine or butylscopolamine no inhibition of DNA platination was observed, independent of the dosing, in either of the three target cell types (renal tubulus epithelium cells (Figure 8 A), cochlear marginal cells (Figure 8B) and outer hair cells (Figure 8 C)). […]

SMILES | inhibition of DNA platination in the three target cell types | reduction of adduct levels in all three target cell types (high dose (ranitidine 100 mg/kg) i.p. 1 h before cis-platin 10 mg/kg, renal tubulus epithelium, cochlear marginal and outer hair cells)
C=C[C@H]1C[N@@]2CC[C@H]1C[C@H]2[C@H](O)c1ccnc2ccc(OC)cc12 [quinine] | no inhibition | 
CNC(=C[N+](=O)[O-])NCCSCc1ccc(CN(C)C)o1 [ranitidine] |  | 15 - 20%
CCCC[N+]1(C)[C@@H]2C[C@@H](OC(=O)[C@H](CO)c3ccccc3)C[C@H]1[C@@H]1O[C@@H]12 (stereo partly drawn) [butylscopolamine] | no inhibition | 
